Assay results as given in patent publication US4368194A, “Pharmacologically active amine boranes” (The United States of America as represented by the …, priority 1981, dated 1983).
Like-named read-outs stand apart in the source and are kept apart here.

How the values were obtained:
[1] = system: Cathepsin; test: Lysosomal free cathepsin activity, liver homogenate; type: biochemical, rats; details: 5 μmoles; for Liver % Free Cathepsin Activity, pH5: in vitro, 20 min
Experimental: (§1) Lysosomal enzymatic assays - Sprague Dawley rats (about 160 g) were sacrificed, the liver excised, and a 10% homogenate (4x) in 0.25 M sucrose and 0.001 M (ethylenedinitrilo) tetra acetic acid, ph 7.2 was prepared.
(§2) Acid phosphatase activity (Gianetto et al., Biochem J., 59, 433 1955) was carried out by incubating with 0.1 Mβ-glycerol phosphate in 0.1 M acetate, pH 5.0 with 5 μmoles of test drugs in 1% carboxymethylcellulose (CMC) for 20 min with liver homogenate and 60 min with resuspended PMNs. Lysosome enzymes were released by 0.02% alkyl phenoxy polyethoxy ethanol-100 to obtain the total enzymatic activity. The reaction was stopped with 10% trichloroacetic acid and the solution centrifuged. Aliquots of the supernatant were assayed for inorganic phophate content by the method of Chen et al., Anal Chem., 28, 1756 (1956). Percent free acid phosphatase was calculated. Cathepsin activity was determined in an analagous manner except the substrate used was 2% azocasein (Schleuning et al., Methods in Enzymology, XLV, 330 1976) in 0.1 M acetate buffer pH 5.0. The supernatant was assayed for acid soluble peptide fragments at 366 nm. Percent free cathepsin activity was calculated.

[2] = target: T1, prostaglandin synthetase from beef seminal vesicle (Bos taurus, UniProt O62664); test: Prostaglandin synthetase activity; type: biochemical; details: 10^-6 M; for activity at 1 µM: 1 h, read-out: Prostaglandin Synthesis
T1 construct: purchased; host or cells: beef seminal vesicle
T1 sequence (O62664 25-600): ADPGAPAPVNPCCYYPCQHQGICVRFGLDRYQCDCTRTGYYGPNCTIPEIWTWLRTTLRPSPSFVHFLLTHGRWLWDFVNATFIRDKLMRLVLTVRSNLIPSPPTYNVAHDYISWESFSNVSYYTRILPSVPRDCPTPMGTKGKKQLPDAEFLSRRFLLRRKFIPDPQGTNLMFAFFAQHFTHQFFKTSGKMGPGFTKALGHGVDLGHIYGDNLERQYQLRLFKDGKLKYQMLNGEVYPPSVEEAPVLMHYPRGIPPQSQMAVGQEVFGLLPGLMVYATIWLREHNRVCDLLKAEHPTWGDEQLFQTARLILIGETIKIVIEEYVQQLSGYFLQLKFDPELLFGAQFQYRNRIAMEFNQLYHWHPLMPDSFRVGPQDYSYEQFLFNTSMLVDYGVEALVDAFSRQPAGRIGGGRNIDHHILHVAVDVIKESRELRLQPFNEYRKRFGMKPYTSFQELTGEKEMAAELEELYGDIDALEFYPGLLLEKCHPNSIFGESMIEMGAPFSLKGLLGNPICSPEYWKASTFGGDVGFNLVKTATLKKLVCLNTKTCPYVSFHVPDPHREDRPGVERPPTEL
Experimental: After 1 hr at 37° C. the reaction was stopped with 1 N HCl and extracted with ethyl ether and evaporated. […] The plates were dried and developed in iodine vapor and with the use of prostaglandin standards the appropriate areas were scraped and counted for ^3 H content. Indometacin was used as a standard at 10^-4 M concentration. Test drugs were used at 10^-6 M.

[3] = system: Acid phosphatase; test: Lysosomal free acid phosphatase activity, liver homogenate; type: biochemical, rats; details: 5 μmoles, in vitro; 20 min
Experimental: as §1, §2

[4] = system: liver mitochondria; test: Oxidative phosphorylation, α-ketoglutarate as substrate; type: biochemical, rats; details: 5 μmoles; for Oxidative Phosphorylation α Ketoglutarate State 3: ADP stimulated respiration; for Oxidative Phosphorylation α Ketoglutarate State 4: basal respiration
Experimental: (§3) Basal and adenosine diphosphate stimulated respiration on 10% liver homogenates was measured using succinate or αketoglutarate as substrate. See Glatt, et al., supra. The reaction vessel contained sucrose 55μ moles, KCl 22μ moles, K2 HPO4 22μ moles, test compounds at 5μ moles in 1% CMC and sodium succinate 90μ moles or αketoglutarate 60μ moles in a total volume of 1.8 ml. […] The rate of respiration was calculated at μl of O2 consumed/hr/mg wet weight of liver.

[5] = system: Acid phosphatase; test: Lysosomal free acid phosphatase activity, PMNs; type: cell-based; details: 5 μmoles; for PMNs % Free Acid Phosphatase Activity, pH5: in vitro, 60 min
Experimental: (§4) Polymorphonuclear neutrophils (PMNs) were collected from the peritoneal cavity four hr after the injection of 35 ml of 0.5% oyster glycogen in isotonic saline (Orange et al., J. Exp. Med., 127, 767 1968). The PMNs were centrifuged down at 800 g for 20 min, washed, and resuspended in minumen essential medium (MEM) with 10% fetal calf serum pH 7.4.
as §2

[6] = in vivo; details: mouse
[7] = system: liver mitochondria; test: Oxidative phosphorylation, succinate as substrate; type: biochemical, rats; details: 5 μmoles; for Oxidative Phosphorylation Succinate State 3: ADP stimulated respiration; for Oxidative Phosphorylation Succinate State 4: basal respiration
Experimental: as §3

[8] = system: cAMP levels in PMNs; test: Cyclic-3',5'-adenosine monophosphate levels (cAMP) in PMNs; type: cell-based; details: 1 h
Experimental: as §4
Isolated PMNs were incubated with test drugs at 5μ moles for 1 hr at 37° C. in MEM at pH 7.4. The reaction was stopped with 6% trichloroacetic acid. The cyclic-3',5'-adenosine monophosphate levels were determined by the radioimmunoassay of Gilman, Proc. Natl. Acad. Sci. (USA), 67, 305 (1970), using 3H(G)-cyclic-3',5'-adenosine monophosphate (39.8 Cu/m mol). Results were calculated in p mole/10^7 PMNs cells.

[9] = system: carrageenan induced edema in mouse foot pads; test: Anti-inflammatory screen (carrageenan induced foot edema); type: in vivo, mice; details: for Anti-inflammatory Screen: mice
Experimental: CF1 male mice (about 30 g) were administered test drugs at 10 mg/kg in 0.05% polysorbate .80-water intraperitoneally 3 hr and 30 min prior to 0.05 ml of 2% carrageenan in 0.9% saline injected into the plantar surface of the right hind foot. Saline injected into the left hind foot served as a base line. After 3 hr, both feet were excised at the tibiotarsal (ankle) joint according to the modified (Roszkowski et al., J. Pharm. Exp. Ther., 179, 114 1971) method of Winter, resulting in an 87 mg net increase in the weight of the control animals' feet.

[10] = system: Cathepsin; test: Lysosomal free cathepsin activity, PMNs; type: cell-based; details: 5 μmoles; for PMNs % Free Cathespin Activity, pH5: in vitro, 60 min
Experimental: as §4, §2

[11] = system: CF1 male mice; test: Writhing reflex (acetic acid); type: in vivo; details: for Writhing Reflex: 20 mg/kg intraperitoneally, mice
Experimental: CF1 male mice were administered test drugs at 20 mg/kg intraperitoneally 20 min (see Hendershat et al., J. Pharmacol Exp. Ther. 125, 237 1959) prior to the administration of 0.5 ml of 0.6% acetic acid (Vingar et al., European J. PHarmacol, 37, 23 1976). After 5 min the number of stretches, characterized by repeated contractures of the abdominal musculature accompanied by extension of the hind limbs, was counted for the next 10 min. The control mice had 78 stretch reflexes per 10 min.

[12] = pH 7.4, 5 μmoles, in vitro, read-out: PMNs cAMP Level

Compound | Liver % Free Cathepsin Activity, pH5 [1] [% Control] | activity at 1 µM [2] [%] | Liver % Free Acid Phosphatase Activity, pH5 [3] [% Control] | uncoupling with α-ketoglutarate as substrate [4] | Oxidative Phosphorylation α Ketoglutarate State 3 [4] [% Control] | Oxidative Phosphorylation α Ketoglutarate State 4 [4] [% Control] | PMNs % Free Acid Phosphatase Activity, pH5 [5] [% Control] | LD50 [6] [mg/kg] | Oxidative Phosphorylation Succinate State 3 [7] [% Control] | Oxidative Phosphorylation Succinate State 4 [7] [% Control] | activity at 5 µmol [8, 12] [%] | Anti-inflammatory Screen ([9]; 10 mg/kg × 2 intraperitoneally) [% Control] | PMNs % Free Cathespin Activity, pH5 [10] [% Control] | Writhing Reflex [11] [% Control] | inhibition of PMN cathepsin activity [10] | further results
[BH3-][NH2+]C(C)(C)C [Compound I, (CH3)3 CNH2.BH3] | 58 ± 5 | 100 ± 3 | 77 ± 4 | uncoupling | 63 ± 14 | 160 ± 35 | 100 ± 9 | 16 | 63 ± 8 | 118 ± 11 | 58 | 41 | 100 ± 4 |  |  | inhibition of the carrageenan induced edema in mouse foot pads ([9]; text summary of Table II): at least 50%
[BH3-][N+](C)(C)C [Compound III, (CH3)3 N.BH3] | 17 ± 4 | 61 ± 3 | 72 ± 6 |  | 28 ± 10 | 71 ± 8 | 57 ± 4 | 740 | 56 ± 12 | 117 ± 11 | 145 | 65 | 18 ± 3 | 47 | at least 82% | inhibition of free proteolytic cathepsin activity of liver [1]: at least 75%; inhibition at 1 µM ([2]; read-out: inhibition of prostaglandin synthesis): > 30%; both states 3 and 4 respiration with α-ketoglutarate [4]: inhibited; inhibition of free acid phosphatase activity in PMNs [5]: 43%; activation at 5 µmol ([8]; in vitro incubation, 5 μmoles, read-out: increase of cyclic adenosine monophosphate levels in PMNs): 45%
CCNC(=O)[BH2-][N+](C)(C)C [VII, (CH3)3 N.BH2 CON(H)CH2 CH3] |  | 100 ± 7 | 78 ± 7 | uncoupling | 45 ± 18 | 113 ± 37 | 100 ± 2 | 320 | 74 ± 9 | 114 ± 13 | 98 | 63 | 22 ± 5 | 29 |  | inhibition of the writhing reflex ([11]; text summary of Table II): 70%
CCNC(=O)[BH2-][N+](C)(C)CC[N+](C)(C)[BH2-]C(=O)NCC [XIII, N,N,N^1,N^1 -Tetramethylethylenediamine-bis(N-ethylamidoborane)] |  | 100 ± 4 | 74 ± 4 | uncoupling | 50 ± 24 | 162 ± 43 | 100 ± 7 | > 1000 | 66 ± 8 | 117 ± 8 | 92 | 65 | 70 ± 6 | 55 |  | 
O=C(O)[BH2-][n+]1ccccc1 [XVI, Pyridine-carboxyborane] | 58 ± 4 | 76 ± 5 | 77 ± 8 |  | 63 ± 15 | 109 ± 30 | 100 ± 5 |  | 75 ± 15 | 110 ± 13 |  |  | 31 ± 4 | 53 |  | activity at 5 µmol ([8]; pH 7.4, read-out: PMNs cAMP Level): 100%; Anti-inflammatory Screen ([9]; 1/3 dose (of 10 mg/kg × 2)): 74 % Control
CCOC(=O)[BH2-][N+](C)(C)C [XVIII, (CH3)3 N.BH2 COOCH2 CH3] |  |  |  |  | 54 ± 8 | 126 ± 51 |  | > 500 | 61 ± 19 | 119 ± 18 |  | 87 | 16 ± 3 | 106 | at least 82% | 
